{"source": "patent US11957687B2", "about": "(REGENERON PHARMACEUTICALS, INC., priority 2019, dated 2024)", "data": [{"molecular_target": "HSD17B13 (Homo sapiens (Human), UniProt Q7Z5P4)", "sequence (Q7Z5P4 other isoform, or with tags, fused parts or gaps)": "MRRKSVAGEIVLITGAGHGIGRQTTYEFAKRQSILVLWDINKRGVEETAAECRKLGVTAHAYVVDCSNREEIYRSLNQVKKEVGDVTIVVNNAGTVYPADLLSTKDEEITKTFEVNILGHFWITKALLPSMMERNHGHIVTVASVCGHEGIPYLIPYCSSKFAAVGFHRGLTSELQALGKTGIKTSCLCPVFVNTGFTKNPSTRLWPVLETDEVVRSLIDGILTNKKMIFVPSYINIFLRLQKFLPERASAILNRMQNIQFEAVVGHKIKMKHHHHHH", "assay": "HSD17B13 enzymatic inhibition assay (150 nM or 50 nM HSD17B13)", "assay_type": "biochemical", "conditions": "50 nM HSD17B13; read-out: Inhibition of 50 nM of HSD17B13 IC50", "units": {"IC50": "nM"}, "values": [{"smiles": "CC(NC(=O)c1ccc(C(F)(F)F)[nH]c1=O)c1ccc(Cl)cc1Oc1cccc(Cl)c1", "note": "(stereo not drawn) [Compound 222, N-(1-(4-chloro-2-(3-chlorophenoxy)phenyl)ethyl)-2-oxo-6-(trifluoromethyl)-1,2-dihydropyridine-3-carboxamide]", "IC50": 2170}, {"smiles": "O=C(Nc1cccc(O)c1)c1ccc(C(F)(F)F)[nH]c1=O", "note": "[Compound 224, N-(3-hydroxyphenyl)-2-oxo-6-(trifluoromethyl)-1,2-dihydropyridine-3-carboxamide]", "IC50": "> 10000"}, {"smiles": "CCc1cccc(NC(=O)c2ccc(C(F)(F)F)[nH]c2=O)c1", "note": "[Compound 225, N-(3-ethylphenyl)-2-oxo-6-(trifluoromethyl)-1,2-dihydropyridine-3-carboxamide]", "IC50": 4650}, {"smiles": "Cc1cccc(NC(=O)c2ccc(C(F)(F)F)[nH]c2=O)c1", "note": "[Compound 226, 2-oxo-N-(m-tolyl)-6-(trifluoromethyl)-1,2-dihydropyridine-3-carboxamide]", "IC50": 8050}, {"smiles": "O=C(Nc1cccc(Cl)c1)c1ccc(C(F)(F)F)[nH]c1=O", "note": "[Compound 227, N-(3-chlorophenyl)-2-oxo-6-(trifluoromethyl)-1,2-dihydropyridine-3-carboxamide]", "IC50": 9850}, {"smiles": "O=C(Nc1cccc2cc(O)ccc12)c1ccc(C(F)(F)F)[nH]c1=O", "note": "[Compound 229, N-(6-hydroxynaphthalen-1-yl)-2-oxo-6-(trifluoromethyl)-1,2-dihydropyridine-3-carboxamide]", "IC50": 1400}, {"smiles": "Cc1ccc2c(c1O)CCCC2NC(=O)c1ccc(C(F)(F)F)[nH]c1=O", "note": "(stereo not drawn) [Compound 231, N-(5-hydroxy-6-methyl-1,2,3,4-tetrahydronaphthalen-1-yl)-2-oxo-6-(trifluoromethyl)-1,2-dihydropyridine-3-carboxamide]", "IC50": 30}, {"smiles": "COc1c(C)ccc2c1CCCC2NC(=O)c1ccc(C(F)(F)F)[nH]c1=O", "note": "(stereo not drawn) [Compound 232, N-(5-methoxy-6-methyl-1,2,3,4-tetrahydronaphthalen-1-yl)-2-oxo-6-(trifluoromethyl)-1,2-dihydropyridine-3-carboxamide]", "IC50": 2690}, {"smiles": "Cc1ccc2c(c1)C(NC(=O)c1ccc(C(F)(F)F)[nH]c1=O)CCO2", "note": "(stereo not drawn) [Compound 233, N-(6-methylchroman-4-yl)-2-oxo-6-(trifluoromethyl)-1,2-dihydropyridine-3-carboxamide]", "IC50": 1320}, {"smiles": "Cc1ccc2c(c1)C(NC(=O)c1ccc(C(F)(F)F)[nH]c1=O)CCS2", "note": "(stereo not drawn) [Compound 236, N-(6-methylthiochroman-4-yl)-2-oxo-6-(trifluoromethyl)-1,2-dihydropyridine-3-carboxamide]", "IC50": 740}, {"smiles": "Cc1ccc2c(c1)C(NC(=O)c1ccc(C(F)(F)F)[nH]c1=O)CC2", "note": "(stereo not drawn) [Compound 237, N-(6-methyl-2,3-dihydro-1H-inden-1-yl)-2-oxo-6-(trifluoromethyl)-1,2-dihydropyridine-3-carboxamide]", "IC50": 490}, {"smiles": "Cc1ccc2c(c1)CCC2NC(=O)c1ccc(C(F)(F)F)[nH]c1=O", "note": "(stereo not drawn) [Compound 238, N-(5-methyl-2,3-dihydro-1H-inden-1-yl)-2-oxo-6-(trifluoromethyl)-1,2-dihydropyridine-3-carboxamide]", "IC50": 680}, {"smiles": "COc1ccc2c(c1)Oc1cc(OC)ccc1C2NC(=O)c1cc(-c2ccccc2)c(C(F)(F)F)[nH]c1=O", "note": "[Compound 239, N-(3,6-dimethoxy-9H-xanthen-9-yl)-2-oxo-5-phenyl-6-(trifluoromethyl)-1,2-dihydropyridine-3-carboxamide]", "IC50": 100}, {"smiles": "COc1ccc2c(c1)Oc1cc(OC)ccc1C2NC(=O)c1cc(C)c(C(F)(F)F)[nH]c1=O", "note": "[Compound 240, N-(3,6-dimethoxy-9H-xanthen-9-yl)-5-methyl-2-oxo-6-(trifluoromethyl)-1,2-dihydropyridine-3-carboxamide]", "IC50": 110}, {"smiles": "COc1ccc2c(c1)Sc1ccccc1C2NC(=O)c1ccc(C(F)(F)F)[nH]c1=O", "note": "(stereo not drawn) [Compound 242, N-(3-methoxy-9H-thioxanthen-9-yl)-2-oxo-6-(trifluoromethyl)-1,2-dihydropyridine-3-carboxamide]", "IC50": 70}, {"smiles": "COc1ccccc1C(NC(=O)c1ccc(C(F)(F)F)[nH]c1=O)c1cccc(C)c1", "note": "(stereo not drawn) [Compound 243, N-((2-methoxyphenyl)(m-tolyl)methyl)-2-oxo-6-(trifluoromethyl)-1,2-dihydropyridine-3-carboxamide]", "IC50": 2160}, {"smiles": "COc1ccccc1C(NC(=O)c1ccc(C(F)(F)F)[nH]c1=O)c1ccc(C)cc1", "note": "(stereo not drawn) [Compound 244, N-((2-methoxyphenyl)(p-tolyl)methyl)-2-oxo-6-(trifluoromethyl)-1,2-dihydropyridine-3-carboxamide]", "IC50": 290}, {"smiles": "CSc1ccccc1C(NC(=O)c1ccc(C(F)(F)F)[nH]c1=O)c1cccc(C)c1", "note": "(stereo not drawn) [Compound 245, N-((2-(methylthio)phenyl)(m-tolyl)methyl)-2-oxo-6-(trifluoromethyl)-1,2-dihydropyridine-3-carboxamide]", "IC50": 1080}, {"smiles": "CSc1ccccc1C(NC(=O)c1ccc(C(F)(F)F)[nH]c1=O)c1ccc(C)cc1", "note": "(stereo not drawn) [Compound 246, N-((2-(methylthio)phenyl)(p-tolyl)methyl)-2-oxo-6-(trifluoromethyl)-1,2-dihydropyridine-3-carboxamide]", "IC50": 300}, {"smiles": "CSc1c(C)cccc1C(NC(=O)c1ccc(C(F)(F)F)[nH]c1=O)c1ccccc1", "note": "(stereo not drawn) [Compound 247, N-((3-methyl-2-(methylthio)phenyl)(phenyl)methyl)-2-oxo-6-(trifluoromethyl)-1,2-dihydropyridine-3-carboxamide]", "IC50": 930}, {"smiles": "Cc1ccc2c(c1)C(NC(=O)c1ccc(C(F)(F)F)[nH]c1=O)c1ccccc1S2", "note": "(stereo not drawn) [Compound 248, N-(2-methyl-9H-thioxanthen-9-yl)-2-oxo-6-(trifluoromethyl)-1,2-dihydropyridine-3-carboxamide]", "IC50": 300}, {"smiles": "O=C(NC1c2ccccc2Sc2ccc(Cl)cc21)c1ccc(C(F)(F)F)[nH]c1=O", "note": "(stereo not drawn) [Compound 249, N-(2-chloro-9H-thioxanthen-9-yl)-2-oxo-6-(trifluoromethyl)-1,2-dihydropyridine-3-carboxamide]", "IC50": 390}, {"smiles": "O=C(NC1c2ccc(Cl)cc2Sc2cc(Cl)ccc21)c1ccc(C(F)(F)F)[nH]c1=O", "note": "[Compound 250, N-(3,6-dichloro-9H-thioxanthen-9-yl)-2-oxo-6-(trifluoromethyl)-1,2-dihydropyridine-3-carboxamide]", "IC50": 60}, {"smiles": "O=C(NC1c2ccc(Cl)cc2Sc2cccc(Cl)c21)c1ccc(C(F)(F)F)[nH]c1=O", "note": "(stereo not drawn) [Compound 251, N-(1,6-dichloro-9H-thioxanthen-9-yl)-2-oxo-6-(trifluoromethyl)-1,2-dihydropyridine-3-carboxamide]", "IC50": 650}, {"smiles": "Cc1ccc2c(c1)Sc1cccc(C)c1C2NC(=O)c1ccc(C(F)(F)F)[nH]c1=O", "note": "(stereo not drawn) [Compound 253, N-(1,6-dimethyl-9H-thioxanthen-9-yl)-2-oxo-6-(trifluoromethyl)-1,2-dihydropyridine-3-carboxamide]", "IC50": 4270}, {"smiles": "O=C(NC1c2ccc(Cl)cc2Oc2cccc(Cl)c21)c1ccc[nH]c1=O", "note": "(stereo not drawn) [Compound 254, N-(1,6-dichloro-9H-xanthen-9-yl)-2-oxo-1,2-dihydropyridine-3-carboxamide]", "IC50": "> 10000"}, {"smiles": "O=C(NC1c2ccc(Cl)cc2Oc2cc(Cl)ccc21)c1ccc[nH]c1=O", "note": "[Compound 255, N-(3,6-dichloro-9H-xanthen-9-yl)-2-oxo-1,2-dihydropyridine-3-carboxamide]", "IC50": "> 10000"}, {"smiles": "COc1cc(C)cc2c1CCC2NC(=O)c1ccc(C(F)(F)F)[nH]c1=O", "note": "(stereo not drawn) [Compound 256, N-(4-methoxy-6-methyl-2,3-dihydro-1H-inden-1-yl)-2-oxo-6-(trifluoromethyl)-1,2-dihydropyridine-3-carboxamide]", "IC50": "> 10000"}, {"smiles": "COc1c(C)ccc2c1CCC2NC(=O)c1ccc(C(F)(F)F)[nH]c1=O", "note": "(stereo not drawn) [Compound 257, N-(4-methoxy-5-methyl-2,3-dihydro-1H-inden-1-yl)-2-oxo-6-(trifluoromethyl)-1,2-dihydropyridine-3-carboxamide]", "IC50": 7130}, {"smiles": "Cc1ccc2c(c1)Sc1cc(C)ccc1C2NC(=O)c1cc(OC2CCOCC2)c(C(F)(F)F)[nH]c1=O", "note": "[Compound 258, N-(3,6-dimethyl-9H-thioxanthen-9-yl)-2-oxo-5-((tetrahydro-2H-pyran-4-yl)oxy)-6-(trifluoromethyl)-1,2-dihydropyridine-3-carboxamide]", "IC50": 10}, {"smiles": "COc1ccc2c(c1)Oc1cc(OC)ccc1C2NC(=O)c1cc(OC2CCOCC2)c(C(F)(F)F)[nH]c1=O", "note": "[Compound 259, N-(3,6-dimethoxy-9H-xanthen-9-yl)-2-oxo-5-((tetrahydro-2H-pyran-4-yl)oxy)-6-(trifluoromethyl)-1,2-dihydropyridine-3-carboxamide]", "IC50": 70}, {"smiles": "O=C(NC1CCCc2c(O)cccc21)c1ccc(SCc2cccc(C(F)(F)F)c2)[nH]c1=O", "note": "(stereo not drawn) [Compound 261, N-(5-hydroxy-1,2,3,4-tetrahydronaphthalen-1-yl)-2-oxo-6-((3-(trifluoromethyl)benzyl)thio)-1,2-dihydropyridine-3-carboxamide]", "IC50": 6870}, {"smiles": "O=C(N[C@@H]1C[C@H](CCO)Cc2ccccc21)c1ccc(C(F)(F)F)[nH]c1=O", "note": "[Compound 262, N-((1R,3R)-3-(2-hydroxyethyl)-1,2,3,4-tetrahydronaphthalen-1-yl)-2-oxo-6-(trifluoromethyl)-1,2-dihydropyridine-3-carboxamide]", "IC50": 980}, {"smiles": "O=C(N[C@@H]1C[C@@H](CCO)Cc2ccccc21)c1ccc(C(F)(F)F)[nH]c1=O", "note": "[Compound 263, N-((1R,3S)-3-(2-hydroxyethyl)-1,2,3,4-tetrahydronaphthalen-1-yl)-2-oxo-6-(trifluoromethyl)-1,2-dihydropyridine-3-carboxamide]", "IC50": 8460}, {"smiles": "O=C(NC1CC(CO)Cc2ccccc21)c1ccc(C(F)(F)F)[nH]c1=O", "note": "(stereo not drawn) [Compound 264, N-(3-(hydroxymethyl)-1,2,3,4-tetrahydronaphthalen-l-yl)-2-oxo-6-(trifluoromethyl)-1,2-dihydropyridine-3-carboxamide]", "IC50": 9780}, {"smiles": "CCC[C@H]1C[C@@H](NC(=O)c2cc(-c3ccccc3)c(C(F)(F)F)[nH]c2=O)c2cc(C)ccc2N1", "note": "[Compound 265, N-((2S,4R)-6-methyl-2-propyl-1,2,3,4-tetrahydroquinolin-4-yl)-2-oxo-5-phenyl-6-(trifluoromethyl)-1,2-dihydropyridine-3-carboxamide]", "IC50": 80}]}]}
